# Assay results taken from patent US6624140B1, “Synthetic peptides with antimicrobial and endotoxin neutralizing properties for management of the sepsis syndrome” (Academisch Ziekenhuis Bij de Universiteit van Amsterdam …, priority 1997, dated 2003).
# No end group written: not given here.
# How the values were obtained:
# [1] = system: Gram-negative and Gram-positive bacteria; test: Anti-microbial activity of analogues and further peptides (bacterium not specified); format: cell-based; conditions: even at the highest concentration tested (20 μg/ml)
# From the text: A peptide encompassing a selected LPS-binding domain from a well characterized human antiendotoxin protein, known as bactericidal/permeability increasing protein (BPI), from amino acids 85 to 102, denoted as BPI(85-102), was included for a direct comparison of the efficacy of the endotoxin-binding domain of a naturally occurring protein and the synthetic peptides of the invention. The amino acid sequence of the BPI(85-102) peptide is:
# The BPI(85-102) reference peptide was synthesized as previously described for peptides of the invention and provided with a C-terminal Cys residue for the purpose of biotinylation as previously described. […] Incubation of various concentrations of the synthetic peptides according to the invention for a limited time period on the survival of both types of bacteria again illustrated their potent anti-microbial activity as opposed to that of the BPI(85-102) peptide (FIG. 1) with the sequence corresponding to that of the potential LPS binding domain of the native BPI protein. This is indicative of a broad specificity of the synthetic peptides, in keeping with the general bactericidal properties of this class of linear amphipathic α-helical peptides. […]
# [2] = Turbidity assay of endotoxin complexation; format: binding, Escherichia coli; conditions: 2-fold molar excess of synthetic peptide
# Experimental: FIG. 2. Endotoxin complexation activity of the synthetic peptides. Peptides at concentrations of 100 to 600 μg/ml were incubated with E. coli D31m4 Re or J5 LPS at 100 μg/ml in a total volume of 100 μl pyrogen-free phosphate buffered saline (PBS) in plastic ELISA microtiter plates for 30 min at 23° C. The turbidity produced by the insoluble peptide-endotoxin complexes was measured at 340 nm. The values represent the mean of three determinations and were corrected for controls containing the same concentrations of endotoxin or peptide.
# (§1) Double-immunodiffusion of the peptides of the invention against ‘rough’ R-type E. coli D31m4 Re-LPS (List Biological Laboratories Inc., Calif.) or the structurally more complex ‘smooth’ S-type E. coli 0111:B4 LPS (Sigma Chemical Co., Rockford, Ill.) was performed in 0.8% (w/v) agarose containing 50 mM Tris and 0.1% (w/v) Triton X100, pH 7.5. for 16 h at 20° C. PmB and BPI(85-102) were included as control compounds for comparative purposes. The microprecipitates formed were visualized by Coommassie brilliant blue staining. […] Since the amount of precipitate formed is a function of valency, the peptides of the invention appear to be capable of a high degree of intermolecular binding of LPS molecules via the Lipid A moieties. […] A turbidity assay was employed for a direct comparison of the endotoxin-binding activity or avidity of selected synthetic peptides according to the invention using the ‘rough’ serotypes E. coli Re or Rc (J5) LPS. PmB and BPI(85-102) were included as control compounds for comparative purposes. The degree of precipitation of endotoxin by the synthetic peptides according to the invention was determined by measurement of the optical density of insoluble complexes formed at 340 nm (FIG. 2). In most instances optimal complexation of Re or J5 LPS by the synthetic peptides of the invention was evident at a molar ratio of peptide to endotoxin of 1 to 2. The control BPI(85-102) peptide was required at a 4-fold molar excess for approximately the same degree of complexation. […] There was no significant difference between complexation of Re or the structurally more complex J5-LPS by the synthetic peptides. […] The Lipid A binding affinity of the synthetic peptides were directly compared in a solid-state endotoxin-binding assay. Binding characteristics of biotinylated derivatives of the synthetic peptides BP1, BP2, BP2.1 and the control peptide BPI(85-102) were determined on ELISA microtiter plates coated with E. coli D31m4 Lipid A. Specific binding of the biotinylated peptides to the immobilized Lipid A was determined by development with Streptavidin-HRP and 3, 5, 3′, 5′ tetra-methylbenzidine (TMB) substrate and expressed as the corrected optical density at 450 nm. […] The affinity of the novel synthetic peptide BP2 for endotoxin of increasing complexity as well as the effect of plasma on binding was examined with the use of the ELISA microplate assay.
# TNF-α production [3] = test: TNF-α in whole blood ex vivo, peptide added before LPS challenge; format: cell-based, human; conditions: 2.5 to 20 μg/ml added 10 min before 1 ng/ml LPS
# Experimental: FIG. 12. Effect of pre-challenge addition of synthetic peptides on TNF-a levels induced by E. coli 0111:B4 LPS in whole blood ex vivo. The synthetic peptides BP2, BP2.1 or BP2.2 were added to whole blood containing heparin at 2 I.U/ml at the concentrations indicated and incubated for 10 min at 37° C. TNF-α concentrations were measured after incubation for 4 h at 37° C. subsequent to addition of E. coli 0111:B4 LPS at 1 ng/ml. The values represent the means of triplicate experiments. Controls only contained added LPS.
# To determine whether addition of synthetic peptide to whole blood ex vivo prior to endotoxin challenge was effective in endotoxin neutralization assayed in terms of cytokine production, a synthetic peptide of the invention BP2, and the analogues BP2.1 or BP2.2 were added at concentrations of 2.5 to 20 μg/ml to whole blood and incubated for 10 min at 37° C. prior to the addition of 1 ng/ml E. coli 0111:B4 LPS. TNF-α concentrations were determined as previously described. […] The structurally related LPS-binding synthetic peptide analogues BP2.1 and BP2.2 were ineffective in endotoxin neutralization under these conditions.
# TNF-α production [4] = test: TNF-α in whole blood ex vivo after pre-incubation of LPS with peptide; format: cell-based, human; conditions: 1 to 10 μg/ml pre-incubated with 1 ng/ml LPS, even at lowest concentration 1 μg/ml, 4 h at 37° C.
# Experimental: FIG. 11. Effect of pre-incubation of E. coli 0111:B4 LPS with synthetic peptides or Polymyxin B on TNF-α levels in whole blood ex vivo. The indicated amounts of synthetic, control peptides or PmB were pre-incubated with E. coli 0111:B4 LPS at 1 ng/ml for […] at 23° C., added to whole blood containing heparin at 2 I.U/ml and the TNF-α concentrations determined after incubation for 4 h at 37° C. Each value is the mean of triplicate experiments. Controls only contained LPS.
# In addition, the LPS-neutralizing activity of selected synthetic peptides of the invention were compared in a more complex environment of whole blood ex vivo to determine the effect of physiological concentrations of blood components such as plasma proteins, blood cells etc. on the detoxification efficacy. In pre-incubation experiments, concentrations of synthetic peptides, control peptide or PmB from 1 to 10 μg/ml were pre-incubated with 1 ng/ml E. coli 0111:B4 LPS in pyrogen-free saline for 30 min at 23° C., added to venous blood containing heparin at 2 I.U/ml as anti-coagulant and incubated for 4 h at 37° C. TNF-α concentrations were determined in appropriately diluted cell-free supernatants as described before.
# [5] = system: IL-6 inducing ability of E. coli 0111:B4 LPS; test: Effect of heparin on neutralization of IL-6 inducing ability of LPS; format: cell-based, human; conditions: heparin 0.1 to 100 I.U/ml
# Experimental: FIG. 10. Effect of heparin on the efficacy of neutralization of the IL-6 inducing ability of E. coli 0111:B4 LPS by synthetic peptide or Polymyxin B in whole blood diluted 1 in 10. Synthetic peptides at concentrations of 2 μg/ml or PmB at 1 μg/ml was pre-incubated for 30 min at 37° C. with E. coli 0111:B4 LPS at 1 ng/ml in RPMI medium containing heparin in the concentration range of 0.1 to 100 I.U/ml. The residual cytokine inducing ability of the treated endotoxin was determined in diluted whole blood containing heparin at 2 IU/ml after incubation for 16 h at 37° C. Each value is the mean of triplicate determinations corrected for background. Controls contained only LPS.
# The endotoxin neutralizing activities of the synthetic peptides of the invention were evaluated by investigating the effect on LPS-stimulated release of the pro-inflammatory cytokines, tumor necrosis factor alpha (TNF-α), interleukin-6 (IL-6) or interleukin-8 (IL-8) in a well characterized in vitro human whole blood bioassay system. In one series of experiments, dilutions of E. coli 0111:B4 LPS from 0.2 to 1 ng/ml were pre-incubated with synthetic peptides at 10 μg/ml concentrations in RPMI medium for 30 min at 20° C. and added to diluted whole blood. Cytokine concentrations in the supernatants were determined after further incubation for 16 h at 37° C. in the presence of 5% CO2 by specific and sensitive ELISA kits (CLB, Amsterdam, The Netherlands). In another series of experiments, the effects of synthetic peptides at concentrations of 2,5, 5 and 10 μg/ml on IL-6 induction by 1 ng/ml 0111:B4 LPS was examined after simultaneous addition of synthetic peptide and LPS to diluted whole blood. […] The control peptide BPI(85-102) was ineffective in reducing cytokine production under these conditions even at a 4-fold higher concentration. This probably reflects the differences in binding affinity for Lipid A of BP1 and BP2 compared with the BPI(85-102) peptide of approximately 5 and 10-fold, respectively. An additional factor which may have influenced binding of the control peptide to endotoxin is the presence of heparin employed as an anti-coagulant at a concentration of […] in the assay system. […] On this basis, it was predicted that the extent of reduction of endotoxin neutralizing efficacy would be a function of the differences in affinity between peptides for endotoxin and heparin. To verify this hypothesis, a series of experiments to determine the effect of increasing heparin concentrations on the efficacy of endotoxin neutralization during pre-incubation of synthetic peptide and E. coli 0111:B4 LPS were performed. FIG. 10 illustrates a dose-dependent suppression of endotoxin neutralizing activity of the synthetic peptides by heparin as exemplified by a reduction of IL-6 inhibition. […]
# [6] = Double-immunodiffusion against 0111:B4 LPS; format: binding, Escherichia coli; conditions: 0.8% agarose, 16 h at 20° C.; data not shown
# Experimental: Double-immunodiffusion of the peptides of the invention against ‘rough’ R-type E. coli D31m4 Re-LPS (List Biological Laboratories Inc., Calif.) or the structurally more complex ‘smooth’ S-type E. coli 0111:B4 LPS (Sigma Chemical Co., Rockford, Ill.) was performed in 0.8% (w/v) agarose containing 50 mM Tris and 0.1% (w/v) Triton X100, pH 7.5. for 16 h at 20° C. PmB and BPI(85-102) were included as control compounds for comparative purposes. The microprecipitates formed were visualized by Coommassie brilliant blue staining. […] Since the amount of precipitate formed is a function of valency, the peptides of the invention appear to be capable of a high degree of intermolecular binding of LPS molecules via the Lipid A moieties. […] The degree of precipitation of endotoxin by the synthetic peptides according to the invention was determined by measurement of the optical density of insoluble complexes formed at 340 nm (FIG. 2). […] Binding characteristics of biotinylated derivatives of the synthetic peptides BP1, BP2, BP2.1 and the control peptide BPI(85-102) were determined on ELISA microtiter plates coated with E. coli D31m4 Lipid A. Specific binding of the biotinylated peptides to the immobilized Lipid A was determined by development with Streptavidin-HRP and 3, 5, 3′, 5′ tetra-methylbenzidine (TMB) substrate and expressed as the corrected optical density at 450 nm. […]
# [7] = comparison value; cited from earlier work
# [8] = Solid-state Lipid A binding ELISA microplate assay; design: species or system Escherichia coli; conditions: biotinylated derivatives; immobilized E. coli D31m4 Lipid A; Scatchard plot
# Experimental: FIG. 3. Lipid A binding affinity of the synthetic peptides. Plastic ELISA microtiter plates were coated with purified E. coli D31m4 Lipid A at 1 μg/ml. Incubations were for 20 min with the indicated concentrations of synthetic peptides BP1, BP2 or BP2.1 or control peptide BPI(85-102) followed by streptavidin-HRP at a dilution of 1 in 20 000. Washing steps to remove excess peptide or streptavidin were with 50 mM Tris buffer pH 7.4 containing 0.05% (v/v) Tween 20. Development was with TMB substrate for 10 min. The optical density (O.D) at 450 nm was measured with a microplate reader and values were corrected for non-specific binding which was generally between 5 and 10%. The plotted values are the corrected means of triplicate experiments.
# as §1
Substance,anti-microbial activity [1],avidity order (degree of insoluble peptide-endotoxin complex formation) [2],endotoxin neutralization (TNF-α production) (TNF-α production [3]),inhibition of TNF-α production (TNF-α production [4]),influence of heparin on LPS-neutralizing activity [5],precipitation of 0111 LPS [6],Ka for Lipid A of known LPS binding molecule [7],apparent binding affinity Ka for Lipid A [8]
"GKLKKKWKAAKKFLKKCS [BP1.1, analogue similar to the formula]",no detectable anti-microbial activity,,,,,,,
"GKWKAFKKAAKKFAKKCS [BP2.2, analogue similar to the formula]",,BP2.1>BP2.2>BP2>BP1>PmB >BPI(85-102),ineffective,no significant reduction,,,,
"Polymyxin B [PmB, reference compound]",,BP2.1>BP2.2>BP2>BP1>PmB >BPI(85-102),,almost complete inhibition,not influenced,failed to precipitate,10^7 M^−1,
"GKWKLFKKAAKKFLKKCS [BP2.1, analogue similar to the formula]",no detectable anti-microbial activity,BP2.1>BP2.2>BP2>BP1>PmB >BPI(85-102),ineffective,no significant reduction,,,,4e+07 M⁻¹
